Measurements: US4861771A, “Carbamates of 6-chloro-7,8-dihydroxy-1-(4'-hydroxyphenyl)-2,3,4,5-tetrahydro-1H-3-benz azepine as prodrugs” (priority 1989, dated 1989)
Counter-ions that a name gives are not always drawn. Each block holds one compound with its values, some of them ahead of it.

Columns and labels:
[1] = plasma fenoldopam levels in dogs; assay type: in vivo, female mongrel dogs
Excerpt: (§1) The renal blood flow of the compounds of Formula 1 was readily measured in female mongrel dogs which underwent chronic implantation of a renal flow probe and arterial Vascular-Acess-Port. Briefly, the dogs were anesthetizied and using standard asceptic techniques, a Transonic flow probe was placed around the left renal artery and the connector tunneled subcutaneously to the back of the dog. The Vascular-Access-Port was placed in the left femoral artery and the access portion tacked to the underlying muscle in the area of the paralumbar-fossa. The patency of the Vascular Access Port was maintained by weekly flushing of the catheter and locking with a 50% glucose 500 U/ml heparinized solution. Dogs were trained to lie quietly restrained on a board and the connector portion of the flow probe was exteriorized under local anesthesia and connected to a Transonic flowmeter. Renal blood flow was recorded continuously on a Gilson chart recorder. Mean arterial pressure was monitored directly from the Vascular-Access-Port using a 23 gauge butterfly. Mean arterial blood pressure and renal blood flow were recorded before and for 6 hr. after the oral or i.v. administration of the R-enantiomers of the parent compound (fenoldopam) and the prodrug of fenoldopam. At the end of the experiment, the flow probe connector was returned to its subcutaneous position and the skin incision closed with chromic gut and skin staples. The VAP was again flushed and a fresh heparin glucose lock established. Standard sterile procedures followed during the removal and replacement of the flow probe connector.
During the experiment post drug blood samples were withdrawn periodically in order to determine the plasma levels of the parent drug, i.e., fenoldopam plasma levels.

[2] = cited from earlier work
renal blood flow = renal blood flow in chronically instrumented (flow probe) dogs; assay type: in vivo, female mongrel dogs; conditions: oral
Excerpt: as §1
The effect was transient and renal blood flow had returned to control values within 60 minutes.

half-life ([1]; dog, plasma, after oral administration of fenoldopam, dogs): 12 min
Compound: Oc1ccc(C2CNCCc3c2cc(O)c(O)c3Cl)cc1 (centres unmarked) [fenoldopam, 6-chloro-7,8-dihydroxy-1-(4-hydroxyphenyl) 2,3,4,5-tetrahdyro-1H-3-benzazepine]
initial peak plasma level ([2]; in vivo, po): initial high peak plasma level
bioavailability ([2]; oral): low
first pass metabolism ([2]; oral): high
half life ([2]; reportedly): short

Tmax ([1]; dog, plasma, oral, 4 dogs, read-out: time of peak plasma fenoldopam level (converted)): 5 min
Compound: Oc1ccc([C@H]2CNCCc3c2cc(O)c(O)c3Cl)cc1 [R-6-chloro-7,8-dihydroxy-1-(4'-hydroxyphenyl)-2,3,4,5-tetrahydro-1H-3-benzazepine]
renal blood flow effect in words (renal blood flow; 4 dogs): transient
time for renal blood flow to return to control values (renal blood flow; 4 dogs): ≤ 60 min
increase in renal blood flow (renal blood flow; 4 dogs, significant increase): 80%

Compound: CCNC(=O)Oc1ccc([C@H]2CNCCc3c2cc(OC(=O)NCC)c(OC(=O)NCC)c3Cl)cc1 [Example 3, (R)-6-chloro-7,8-diethylcarbamoyl-(4'-ethylcarbamoylphenyl)-2,3,4,5-tetrahydro-1H-3-benzazepine hydrochloride]
duration of sustained increase in plasma fenoldopam ([1]; oral, dogs): 4 to 6 h
duration of sustained increase in renal blood flow (renal blood flow; dogs): 4 to 6 h
